The results in this text go back to patent publication US8148391B2 (Cephalon, Inc., priority 2006, dated 2012).

Where two headings read alike, the source gives them in different places.

Experiment [1] addresses T1, baculovirus-expressed ALK (Homo sapiens, UniProt Q9UM73).
T1 construct: host or cells: baculovirus expression system
Kind of experiment: ALK Kinase Assay (ELISA-type, time-resolved fluorescence). In kind it is biochemical. In outline: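 Substrate coating: phospholipase C-γ, 10 μg/mL in TBS. Kinase step: 30 ng/ml ALK, 15 min, 37° C. Detection and analysis: Eu-N1 PT66 antibody, with IC50 fitted as a sigmoidal variable-slope dose-response curve.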
(An ELISA detects its analyte on a solid surface through an enzyme-linked reagent.)

The target in experiment [2] is T2, c-Met (cytoplasmic domain) (Homo sapiens, UniProt P08581).
T2 construct: 10 ng/mL c-Met (cytoplasmic domain, Invitrogen Corporation #PV3143); purchased Invitrogen Corporation PV3143
Kind of experiment: c-Met Kinase Assay (same methods as for ALK, with modifications). The format is biochemical. In outline:
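This plate-based kinase format uses immobilized phospholipase C-γ as substrate, phosphorylated by c-Met cytoplasmic domain (10 ng/mL) at 37° C for 15 minutes.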

Setting [3] is: ALK kinase inhibition, 1 μM ATP, read-out: ALK Activity.
Setting [4] is: c-Met kinase inhibition, 1 μM ATP, read-out: cMet Activity.
[5] abbreviates: ALK kinase inhibition, 1 μM ATP (Km level), read-out: ALK Activity.
[6] abbreviates: c-Met kinase inhibition, 1 μM ATP (Km level), read-out: cMet Activity.
The mark [7] stands for this setting: 1 μM ATP (Km level), 30 ng/ml ALK, 37° C., 15 minutes, read-out: ALK Activity (ALK kinase inhibition, IC50 class).
Where [8] appears, read: 1 μM ATP (Km level), 10 ng/mL c-Met, read-out: cMet Activity (c-Met kinase inhibition, IC50 class).
The mark [9] stands for this setting: 1 μM ATP (Km level), read-out: ALK Activity (ALK Kinase Inhibition, IC50).
Where [10] appears, read: 1 μM ATP (Km level), read-out: cMet Activity (c-Met Kinase Inhibition, IC50).

T1 sequence (Q9UM73 19-1620): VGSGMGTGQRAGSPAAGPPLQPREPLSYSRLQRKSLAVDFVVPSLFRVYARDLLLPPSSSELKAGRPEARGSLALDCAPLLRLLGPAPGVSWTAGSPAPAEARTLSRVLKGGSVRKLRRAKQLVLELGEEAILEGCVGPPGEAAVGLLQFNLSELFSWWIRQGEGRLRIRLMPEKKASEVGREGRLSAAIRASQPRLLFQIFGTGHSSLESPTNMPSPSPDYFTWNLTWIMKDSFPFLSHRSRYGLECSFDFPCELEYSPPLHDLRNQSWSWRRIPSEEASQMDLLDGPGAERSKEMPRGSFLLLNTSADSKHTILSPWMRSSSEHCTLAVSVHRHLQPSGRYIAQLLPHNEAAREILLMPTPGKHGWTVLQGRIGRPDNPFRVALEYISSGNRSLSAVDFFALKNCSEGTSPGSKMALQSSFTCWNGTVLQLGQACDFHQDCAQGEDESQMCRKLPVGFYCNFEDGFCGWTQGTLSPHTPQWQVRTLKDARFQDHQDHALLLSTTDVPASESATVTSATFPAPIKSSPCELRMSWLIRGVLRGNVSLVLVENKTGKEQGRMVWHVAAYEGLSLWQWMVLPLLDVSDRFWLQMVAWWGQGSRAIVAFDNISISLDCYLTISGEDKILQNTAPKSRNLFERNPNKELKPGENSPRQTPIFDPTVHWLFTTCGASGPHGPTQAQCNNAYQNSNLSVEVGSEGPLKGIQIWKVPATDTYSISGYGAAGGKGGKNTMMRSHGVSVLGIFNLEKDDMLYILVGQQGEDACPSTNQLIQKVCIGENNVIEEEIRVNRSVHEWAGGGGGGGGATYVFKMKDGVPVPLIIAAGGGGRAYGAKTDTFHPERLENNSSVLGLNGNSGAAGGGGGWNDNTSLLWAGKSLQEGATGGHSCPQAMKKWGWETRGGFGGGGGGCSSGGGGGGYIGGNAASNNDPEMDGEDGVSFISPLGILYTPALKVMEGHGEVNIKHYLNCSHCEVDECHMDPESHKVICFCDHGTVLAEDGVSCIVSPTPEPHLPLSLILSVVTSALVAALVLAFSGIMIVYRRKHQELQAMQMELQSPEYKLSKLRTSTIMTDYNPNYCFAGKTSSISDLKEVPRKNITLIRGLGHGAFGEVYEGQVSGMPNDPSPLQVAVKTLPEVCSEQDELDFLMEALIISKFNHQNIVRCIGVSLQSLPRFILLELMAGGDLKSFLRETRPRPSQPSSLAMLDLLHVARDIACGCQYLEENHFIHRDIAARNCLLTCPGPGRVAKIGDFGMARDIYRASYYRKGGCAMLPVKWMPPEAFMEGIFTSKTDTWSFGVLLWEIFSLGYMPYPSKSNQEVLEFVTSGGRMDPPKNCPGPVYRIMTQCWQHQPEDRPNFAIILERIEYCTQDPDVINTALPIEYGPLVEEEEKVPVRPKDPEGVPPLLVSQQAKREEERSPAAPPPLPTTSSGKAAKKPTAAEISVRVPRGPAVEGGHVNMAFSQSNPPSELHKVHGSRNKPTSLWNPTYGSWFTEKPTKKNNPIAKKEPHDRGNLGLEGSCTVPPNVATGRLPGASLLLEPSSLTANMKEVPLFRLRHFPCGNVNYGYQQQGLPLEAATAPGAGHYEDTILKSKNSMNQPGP
T2 sequence (P08581 956-1390 limits assumed): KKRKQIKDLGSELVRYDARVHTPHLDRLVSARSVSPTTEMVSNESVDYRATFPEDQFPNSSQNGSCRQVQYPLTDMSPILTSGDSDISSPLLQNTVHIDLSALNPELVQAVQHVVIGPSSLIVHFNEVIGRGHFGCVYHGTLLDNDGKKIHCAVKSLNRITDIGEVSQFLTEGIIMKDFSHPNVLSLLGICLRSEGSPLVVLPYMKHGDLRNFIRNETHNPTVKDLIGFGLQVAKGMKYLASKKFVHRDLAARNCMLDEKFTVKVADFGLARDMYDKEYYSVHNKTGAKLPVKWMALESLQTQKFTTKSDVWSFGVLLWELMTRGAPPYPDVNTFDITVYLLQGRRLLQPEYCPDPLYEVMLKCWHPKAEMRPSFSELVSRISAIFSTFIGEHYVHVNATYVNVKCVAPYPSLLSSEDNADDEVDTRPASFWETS

As for `CNC(=O)c1ccc2c(c1Nc1nc(Nc3ccc4c(c3)CCN(CCOC)CC4)ncc1Cl)OCO2` [Example 1480, 4-{5-Chloro-2-[3-(2-methoxy-ethyl)-2,3,4,5-tetrahydro-1H-benzo[d]azepin-7-ylamino]-pyrimidin-4-ylamino}-benzo[1,3]dioxole-5-carboxylic acid methylamide], the IC50 in experiment [1] (setting [3]) lay in the range of 100 to 1000 nM; in experiment [2] (setting [4]), 1000 to 10000 nM.

In the case of `CCN(CC)CCN1CCNC(=O)c2ccc(Nc3ncc(Cl)c(Nc4ccccc4C(=O)NC)n3)cc21` [Example 415, 2-{5-Chloro-2-[1-(2-diethylamino-ethyl)-5-oxo-2,3,4,5-tetrahydro-1H-benzo[e][1,4]diazepin-8-ylamino]-pyrimidin-4-ylamino}-N-methylbenzamide], the values for the IC50 in experiment [1] (setting [5]) and in experiment [2] (setting [6]) were less than 100 nM and 100 to 1000 nM, respectively.

For `CNC(=O)c1ccccc1Nc1nc(Nc2c(OC)ccc3c2CCC(N2CCOCC2)CC3)ncc1Cl` (centres unmarked) [Example 1073, 2-[5-Chloro-2-(2-methoxy-7-morpholin-4-yl-6,7,8,9-tetrahydro-5H-benzocyclohepten-1-ylamino)-pyrimidin-4-ylamino]-N-methyl-benzamide], the IC50 in experiment [1] (setting [7]) is 100 to 1000 nM; in experiment [2] (setting [8]), more than 10000 nM.

Consider `CCN1C(=O)CCC(C)(C)c2cc(Nc3ncc(Cl)c(Nc4ccccc4C(=O)NC)n3)ccc21` [Example 387, 2-[5-Chloro-2-(1-ethyl-5,5-dimethyl-2-oxo-2,3,4,5-tetrahydro-1H-benzo[b]azepin-7-ylamino)-pyrimidin-4-ylamino]-N-methyl-benzamide], for which the IC50 in experiment [1] (setting [5]) and in experiment [2] (setting [6]) was less than 100 nM throughout.

As for `CCN1CCc2ccc(Nc3ncc(Cl)c(Nc4ccc(N5CCOCC5)cc4OC)n3)cc2CC1` [Example 442, 5-Chloro-N*2*-(3-ethyl-2,3,4,5-tetrahydro-1H-benzo[d]azepin-7-yl)-N*4*-(2-methoxy-4-morpholin-4-yl-phenyl)-pyrimidine-2,4-diamine], the IC50 is less than 100 nM in experiment [1] (setting [5]) and 1000 to 10000 nM in experiment [2] (setting [6]).

For the molecule `CNC(=O)c1cccc(Cl)c1Nc1nc(Nc2ccc3c(c2)CCCC(=O)N3CCOC)ncc1Cl` [Example 357, 3-Chloro-2-{5-chloro-2-[1-(2-methoxy-ethyl)-2-oxo-2,3,4,5-tetrahydro-1H-benzo[b]azepin-7-ylamino]-pyrimidin-4-ylamino}-N-methyl-benzamide], the IC50 in experiment [1] (setting [5]) was 1000 to 10000 nM; in experiment [2] (setting [6]), less than 100 nM.

With `CNC(=O)c1ccccc1Nc1nc(Nc2ccc3c(c2OC)CCCC(=O)N3C)ncc1Cl` [Example 116, 2-[5-Chloro-2-(6-methoxy-1-methyl-2-oxo-2,3,4,5-tetrahydro-1H-benzo[b]azepin-7-ylamino)-pyrimidin-4-ylamino]-N-methyl-benzamide], the IC50 in experiment [1] (setting [5]) was less than 100 nM; in experiment [2] (setting [6]), 1000 to 10000 nM.

As for `CCNC(=O)c1ccccc1Nc1nc(Nc2cc3c(cc2OC)CN(Cc2ccccc2)CC(=O)N3)ncc1Cl` [Example 1653, 2-[2-(4-Benzyl-7-methoxy-2-oxo-2,3,4,5-tetrahydro-1H-benzo[e][1,4]diazepin-8-ylamino)-5-chloro-pyrimidin-4-ylamino]-N-ethyl-benzamide], the IC50 in experiment [1] (setting [3]) was less than 100 nM; in experiment [2] (setting [4]), 1000 to 10000 nM.

For `CCN1C(=O)CNCc2cc(OC)c(Nc3ncc(Cl)c(Nc4ccccc4S(=O)(=O)C(C)C)n3)cc21` [Example 729, 8-{5-Chloro-4-[2-(propane-2-sulfonyl)-phenylamino]-pyrimidin-2-ylamino}-1-ethyl-7-methoxy-1,3,4,5-tetrahydro-benzo[e][1,4]diazepin-2-one], the IC50 in experiment [1] (setting [9]) is less than 100 nM; in experiment [2] (setting [10]) it was 1000 to 10000 nM.

Turning to `NC(=O)C1C2C=CC(C2)C1Nc1nc(Nc2ccc3c(c2)CCC(N2CCOCC2)CC3)ncc1Cl` (centres unmarked) [Example 867, 3-[5-Chloro-2-(7-morpholin-4-yl-6,7,8,9-tetrahydro-5H-benzocyclohepten-2-ylamino)-pyrimidin-4-ylamino]-bicyclo[2.2.1]hept-5-ene-2-carboxylic acid amide], the results for the IC50 in experiment [1] (setting [9]) and in experiment [2] (setting [10]) were less than 100 nM and 100 to 1000 nM, respectively.

Turning to `COc1cc2c(cc1Nc1ncc(Cl)c(Nc3ccc(N(C)C)cc3OC)n1)CCN(CC(=O)N1CCN(C)CC1)CC2` [Example 1540, 2-{7-[5-Chloro-4-(4-dimethylamino-2-methoxy-phenylamino)-pyrimidin-2-ylamino]-8-methoxy-1,2,4,5-tetrahydro-3-benzazepin-3-yl}-1-(4-methyl-piperazin-1-yl)-ethanone], the IC50 is less than 100 nM in experiment [1] (setting [3]) and more than 10000 nM in experiment [2] (setting [4]).

As for `CNC(=O)c1ccccc1Nc1nc(Nc2cccc3c2N(C)CCN(C)C3=O)ncc1Cl` [Example 541, 2-[5-Chloro-2-(1,4-dimethyl-5-oxo-2,3,4,5-tetrahydro-1H-benzo[e][1,4]diazepin-9-ylamino)-pyrimidin-4-ylamino]-N-methyl-benzamide], the IC50 in experiment [1] (setting [9]) was 100 to 1000 nM; in experiment [2] (setting [10]), more than 10000 nM.

In the case of `CNC(=O)c1cc(N(C)C)ccc1Nc1nc(Nc2ccc3c(c2)CCN(CCOC)CC3)ncc1Cl` [Example 1413, 2-{5-Chloro-2-[3-(2-methoxy-ethyl)-2,3,4,5-tetrahydro-1H-benzo[d]azepin-7-ylamino]-pyrimidin-4-ylamino}-5-dimethylamino-N-methyl-benzamide], the figures for the IC50 in experiment [1] (setting [7]) and in experiment [2] (setting [8]) were less than 100 nM and 100 to 1000 nM, respectively.

Turning to `COc1cc2c(cc1Nc1ncc(Cl)c(Nc3ccc(N4CCN(C)CC4)c(OC)c3)n1)CCN(CC(=O)N(C)C)CC2` [Example 804, 2-(7-{5-Chloro-4-[3-methoxy-4-(4-methyl-piperazin-1-yl)-phenylamino]-pyrimidin-2-ylamino}-8-methoxy-1,2,4,5-tetrahydro-benzo[d]azepin-3-yl)-N,N-dimethyl-acetamide], the IC50 in experiment [1] (setting [9]) was less than 100 nM; in experiment [2] (setting [10]) it was more than 10000 nM.

Regarding `CNC(=O)c1cc(Br)cc(F)c1Nc1nc(Nc2ccc3c(c2)CCN(CCOC)CC3)ncc1Cl` [Example 1415, 5-Bromo-2-{5-chloro-2-[3-(2-methoxy-ethyl)-2,3,4,5-tetrahydro-1H-benzo[d]azepin-7-ylamino]-pyrimidin-4-ylamino}-3-fluoro-N-methyl-benzamide], the IC50 in experiment [1] (setting [7]) and in experiment [2] (setting [8]) was less than 100 nM each time.

As for `COCCN1CCc2ccc(OC)c(Nc3ncc(Cl)c(Nc4ccc(N5CCOCC5)cc4OC)n3)c2CC1` [Example 246, 5-Chloro-N(2)-[7-methoxy-3-(2-methoxy-ethyl)-2,3,4,5-tetrahydro-1H-benzo[d]azepin-6-yl]-N(4)-(2-methoxy-4-morpholin-4-yl-phenyl)-pyrimidine-2,4-diamine], the IC50 in experiment [1] (setting [5]) is 1000 to 10000 nM; in experiment [2] (setting [6]) it was more than 10000 nM.

With `CNC(=O)c1cccc(F)c1Nc1nc(Nc2ccc3c(c2)CNC(=O)CCN3C(C)=O)ncc1Cl` [Example 1224, 2-[2-(1-Acetyl-4-oxo-1,2,3,4,5,6-hexahydro-benzo[b][1,5]diazocin-8-ylamino)-5-chloro-pyrimidin-4-ylamino]-3-fluoro-N-methyl-benzamide], the IC50 in experiment [1] (setting [7]) and in experiment [2] (setting [8]) was less than 100 nM throughout.

On to `C#CCN1CCc2ccc(Nc3ncc(Cl)c(N[C@H]4[C@@H](C(N)=O)[C@@H]5C=C[C@H]4C5)n3)cc2CC1` (relative stereo) [Example 323, (2-exo, 3-exo)-3-[5-Chloro-2-(3-prop-2-ynyl-2,3,4,5-tetrahydro-1H-benzo[d]azepin-7-ylamino)-pyrimidin-4-ylamino]-bicyclo[2.2.1]hept-5-ene-2-carboxylic acid amide], for which the IC50 was less than 100 nM in experiment [1] (setting [5]) and 100 to 1000 nM in experiment [2] (setting [6]).

`CCN1C(=O)C(N(C)C)CCc2c1ccc(Nc1ncc(Cl)c(Nc3ccccc3-n3cccn3)n1)c2OC` (centres unmarked) [Example 1349, 7-[5-Chloro-4-(2-pyrazol-1-yl-phenylamino)-pyrimidin-2-ylamino]-3-dimethylamino-1-ethyl-6-methoxy-1,3,4,5-tetrahydro-benzo[b]azepin-2-one]: the values for the IC50 in experiment [1] (setting [7]) and in experiment [2] (setting [8]) were less than 100 nM and more than 10000 nM, respectively.

`CNC(=O)c1cc(F)cc(F)c1Nc1nc(Nc2ccc3c(c2)CCN(CCOC)CC3)ncc1Cl` [Example 1277, 2-{5-Chloro-2-[3-(2-methoxy-ethyl)-2,3,4,5-tetrahydro-1H-3-benzazepin-7-ylamino]-pyrimidin-4-ylamino}-3,5-difluoro-N-methyl-benzamide]: the IC50 in experiment [1] (setting [7]) and in experiment [2] (setting [8]) was 100 to 1000 nM throughout.

For the molecule `CNC(=O)c1ccccc1Nc1nc(Nc2ccc3c(c2)NC(=O)CN(CCOC)C3)ncc1Cl` [Example 1864, 2-{5-Chloro-2-[4-(2-methoxy-ethyl)-2-oxo-2,3,4,5-tetrahydro-1H-benzo[e][1,4]diazepin-8-ylamino]-pyrimidin-4-ylamino}-N-methyl-benzamide], the IC50 in experiment [1] (setting [3]) and in experiment [2] (setting [4]) was less than 100 nM each time.

As to `COCCN1CCc2ccc(Nc3ncc(Cl)c(Nc4ccc(N5CCOCC5)cc4OCCC#N)n3)cc2CC1` [Example 1689, 3-(2-{5-Chloro-2-[3-(2-methoxy-ethyl)-2,3,4,5-tetrahydro-1H-benzo[d]azepin-7-ylamino]-pyrimidin-4-ylamino}-5-morpholin-4-yl-phenoxy)-propionitrile], the IC50 in experiment [1] (setting [3]) was less than 100 nM; in experiment [2] (setting [4]), 1000 to 10000 nM.
